Columns and labels:
FAP = target: T1, FAP (Homo sapiens, UniProt Q12884); assay: In vitro FAP binding affinity, Grating-Coupled Interferometry (GCI), waveRAPID kinetics assay; settings: immobilized biotinylated FAP; 1×PBS pH 7.4, 1 mM DTT, 0.005% Tween, 2% DMSO; non-radiolabelled compounds
T1 construct: biotin (biotinylated)
T1 sequence (Q12884 1-760): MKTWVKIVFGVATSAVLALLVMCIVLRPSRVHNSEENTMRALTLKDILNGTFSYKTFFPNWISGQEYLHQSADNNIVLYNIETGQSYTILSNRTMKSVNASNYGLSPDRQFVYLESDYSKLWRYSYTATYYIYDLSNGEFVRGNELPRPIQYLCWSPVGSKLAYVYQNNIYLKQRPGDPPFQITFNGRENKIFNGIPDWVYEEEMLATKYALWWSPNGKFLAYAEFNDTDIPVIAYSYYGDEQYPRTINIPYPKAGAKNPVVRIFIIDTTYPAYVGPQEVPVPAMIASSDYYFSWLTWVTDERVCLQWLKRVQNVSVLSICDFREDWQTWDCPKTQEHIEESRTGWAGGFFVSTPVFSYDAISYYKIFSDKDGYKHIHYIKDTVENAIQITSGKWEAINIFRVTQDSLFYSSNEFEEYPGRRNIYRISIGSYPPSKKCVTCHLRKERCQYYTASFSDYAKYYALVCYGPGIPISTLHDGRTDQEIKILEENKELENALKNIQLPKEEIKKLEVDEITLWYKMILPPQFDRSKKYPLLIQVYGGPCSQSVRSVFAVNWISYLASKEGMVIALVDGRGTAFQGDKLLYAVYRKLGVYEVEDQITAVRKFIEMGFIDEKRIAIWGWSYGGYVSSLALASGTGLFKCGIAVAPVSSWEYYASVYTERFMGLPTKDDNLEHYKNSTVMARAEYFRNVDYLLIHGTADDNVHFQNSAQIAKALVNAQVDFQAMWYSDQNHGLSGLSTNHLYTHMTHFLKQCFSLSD
Experimental: The binding affinity of non-radiolabelled compounds Example 2 (Ga—(S,R,R)—SiFA-FAP-1) and Example 1 ((S,R,R)—SiFA-FAP-1) was assessed in vitro using Grating-Coupled Interferometry (GCI) and waveRAPID kinetics assay (Kartal Ö et al. SLAS Discov. 2021 September; 26(8)-995-1003).
FAP was immobilized on a streptavidin sensor chap in order to assess target binding of compounds. Briefly, the streptavidin chip was conditioned with borate buffer and activated with EDC-NHS solution. Immobilization was achieved via amine coupling to the surface on an amine reactive sensor chip (NeutrAvidin sensor chip) and unused amine reactive groups were deactivated with ethanolamine. FAP was immobilized via via NeutrAvidin capturing of the biotinylated FAP and remaining NeutrAvidin quenched with biocytin. Binding of the compounds to immobilized FAP was assessed using the waveRAPID kinetics assay, using different concentrations of each compound in 1×PBS pH 7.4, 1 mM DTT, 0.005% Tween, 2% DMSO. Binding affinity to FAP was reported as KD.

[1] = system: subcutaneous U87-MG tumour; assay: In vivo PET imaging uptake in U87-MG tumour-bearing mice; settings: 60 minutes post-radiotracer administration; for PET imaging uptake, Muscle: U87-MG tumor-bearing mice; for PET imaging uptake, Muscle / PET imaging uptake, Tumor: i.v.
Experimental: (§1) The human glioblastoma U87-MG cell line was purchased from ATCC. Cells were cultured in EMEM (supplemented with 2 mM L-glutamine, with 10% fetal bovine serum and 0.1 mM NEAA) at 37° C. in a humidified atmosphere (5% CO2, 95% air).
(§2) All animal experiments were conducted in accordance with the Federation for Laboratory Animal Science Associations guidelines. Healthy female Swiss nude (CrI:NU(Ico)-Foxn1nu) mice (5-6 weeks old) were purchased from Charles River. Mice were irradiated 24-72 hours prior to tumour cell inoculation (whole-body irradiation, 2 Gy/mouse), and U87-MG cells (1×10^7 in 200 μL of RPMI 1640) were then injected subcutaneously into the right shoulder flank.
(§3) Female Swiss nude (CrI:NU(Ico)-Foxn1nu) mice each bearing a subcutaneous U87-MG tumour in the right flank (n=4) were administered with radiolabelled compound of Example 11 ([^18F]—Ga—(S,R,R)—SiFA-FAP-1) (8±1.5 MBq, 100 μL per mouse) intravenously into the tail vein (approximately 3 weeks post inoculation of U87-MG cells). Static PET imaging was performed 60 minutes post-radiotracer administration under anaesthesia (2% isoflurane) using a small animal PET scanner (eXploreVISTA, GE) (n=3). Whole-body PET acquisitions were performed over two bed positions for 20 minutes. Regions of interest were generated, and radiotracer uptake in tissues was calculated as % injected dose per region of interest volume (% ID/cm^3). Immediately post-PET imaging, mice (n=4) were sacrificed and select tissues (blood, tumor, heart, lung, liver, kidneys, spleen, pancreas, intestine, bone, muscle, tail) were harvested and weighed. Radioactivity in the collected samples was determined using γ-counting (Packard). Radiotracer uptake was calculated as % injected dose per gram of tissue (% ID/g).

[2] = system: subcutaneous U87-MG tumour; assay: Biodistribution by γ-counting of excised tissues of U87-MG tumour-bearing mice; format: in vivo; settings: γ-counting 80 minutes post-radiotracer injection; for Biodistribution, Blood / Biodistribution, Bone / Biodistribution, Heart / Biodistribution, Intestine / Biodistribution, Kidneys / Biodistribution, Liver / Biodistribution, Lung / Biodistribution, Muscle / Biodistribution, Pancreas / Biodistribution, Spleen: U87-MG tumor-bearing mice
Experimental: as §1, §2, §3

Compound: CC(C)(C)[Si](F)(c1ccc(C(=O)NC[C@@H](NC(=O)CC[C@H](C(=O)O)N2CCN(CC(=O)O)CCN(CC(=O)O)CCN(CC(=O)O)CC2)C(=O)NCCCOc2ccc3nccc(C(=O)NCC(=O)N4CCC[C@H]4C#N)c3c2)cc1)C(C)(C)C [Example 1, 2,2′,2″-(10-((R)-1-Carboxy-4-(((R)-1-((3-((4-((2-((S)-2-cyanopyrrolidin-1-yl)-2-oxoethyl)carbamoyl)quinolin-6-yl)oxy)propyl)amino)-3-(4-(di-tert-butylfluorosilyl)benzamido)-1-oxopropan-2-yl)amino)-4-oxobutyl)-1,4,7,10-tetraazacyclododecane-1,4,7-triyl) triacetic acid]
- Kd (FAP): 0.031 nM

Compound: CC(C)(C)[Si]([18F])(c1ccc(C(=O)NC[C@@H](NC(=O)CC[C@H](C(=O)O)N2CCN(CC(=O)O)CCN(CC(=O)O)CCN(CC(=O)O)CC2)C(=O)NCCCOc2ccc3nccc(C(=O)NCC(=O)N4CCC[C@H]4C#N)c3c2)cc1)C(C)(C)C [Example 11]
- PET imaging Tumor:Muscle ratio ([1]; Mean ± SD (n=3)): 4.4 ± 0.8
- PET imaging Tumor:Muscle ratio ([1]; Mouse 1): 4.6
- PET imaging Tumor:Muscle ratio ([1]; Mouse 2): 5
- PET imaging Tumor:Muscle ratio ([1]; Mouse 3): 3.5
- PET imaging uptake, Muscle ([1]; Mean ± SD (n=3)): 1.0 ± 0.1 % ID/cm^3
- PET imaging uptake, Muscle ([1]; Mouse 1): 1 % ID/cm^3
- PET imaging uptake, Muscle ([1]; Mouse 2): 0.8 % ID/cm^3
- PET imaging uptake, Muscle ([1]; Mouse 3): 1.1 % ID/cm^3
- PET imaging uptake, Tumor ([1]; Mean ± SD (n=3)): 4.1 ± 0.3 % ID/cm^3
- PET imaging uptake, Tumor ([1]; Mouse 1): 4.4 % ID/cm^3
- PET imaging uptake, Tumor ([1]; Mouse 2): 4.2 % ID/cm^3
- PET imaging uptake, Tumor ([1]; Mouse 3): 3.8 % ID/cm^3
- Biodistribution, Blood ([2]; Mean ± SD (n=4)): 2.6 ± 1.1 % ID/g
- Biodistribution, Bone ([2]; Mean ± SD (n=4)): 5.1 ± 1.3 % ID/g
- Biodistribution, Heart ([2]; Mean ± SD (n=4)): 1.1 ± 0.2 % ID/g
- Biodistribution, Intestine ([2]; Mean ± SD (n=4)): 7.3 ± 2.4 % ID/g
- Biodistribution, Kidneys ([2]; Mean ± SD (n=4)): 3.0 ± 1.2 % ID/g
- Biodistribution, Liver ([2]; Mean ± SD (n=4)): 3.3 ± 0.8 % ID/g
- Biodistribution, Lung ([2]; Mean ± SD (n=4)): 1.7 ± 0.1 % ID/g
- Biodistribution, Muscle ([2]; Mean ± SD (n=4)): 0.6 ± 0.1 % ID/g
- Biodistribution, Pancreas ([2]; Mean ± SD (n=4)): 0.6 ± 0.1 % ID/g
- Biodistribution, Spleen ([2]; Mean ± SD (n=4)): 0.7 ± 0.1 % ID/g
- Biodistribution, Blood ([2]; Mouse 1): 2.0 % ID/g
- Biodistribution, Bone ([2]; Mouse 1): 5.7 % ID/g
- Biodistribution, Heart ([2]; Mouse 1): 1.1 % ID/g
- Biodistribution, Intestine ([2]; Mouse 1): 5.4 % ID/g
- Biodistribution, Kidneys ([2]; Mouse 1): 3.8 % ID/g
- Biodistribution, Liver ([2]; Mouse 1): 3.8 % ID/g
- Biodistribution, Lung ([2]; Mouse 1): 1.6 % ID/g
- Biodistribution, Muscle ([2]; Mouse 1): 0.5 % ID/g
- Biodistribution, Pancreas ([2]; Mouse 1): 0.7 % ID/g
- Biodistribution, Spleen ([2]; Mouse 1): 0.7 % ID/g
- Biodistribution, Blood ([2]; Mouse 2): 1.3 % ID/g
- Biodistribution, Bone ([2]; Mouse 2): 6.6 % ID/g
- Biodistribution, Heart ([2]; Mouse 2): 0.9 % ID/g
- Biodistribution, Intestine ([2]; Mouse 2): 5.3 % ID/g
- Biodistribution, Kidneys ([2]; Mouse 2): 1.6 % ID/g
- Biodistribution, Liver ([2]; Mouse 2): 2.5 % ID/g
- Biodistribution, Lung ([2]; Mouse 2): 1.8 % ID/g
- Biodistribution, Muscle ([2]; Mouse 2): 0.8 % ID/g
- Biodistribution, Pancreas ([2]; Mouse 2): 0.6 % ID/g
- Biodistribution, Spleen ([2]; Mouse 2): 0.6 % ID/g
- Biodistribution, Blood ([2]; Mouse 3): 3.5 % ID/g
- Biodistribution, Bone ([2]; Mouse 3): 4.0 % ID/g
- Biodistribution, Heart ([2]; Mouse 3): 1.3 % ID/g
- Biodistribution, Intestine ([2]; Mouse 3): 8.6 % ID/g
- Biodistribution, Kidneys ([2]; Mouse 3): 4.2 % ID/g
- Biodistribution, Liver ([2]; Mouse 3): 2.7 % ID/g
- Biodistribution, Lung ([2]; Mouse 3): 1.7 % ID/g
- Biodistribution, Muscle ([2]; Mouse 3): 0.5 % ID/g
- Biodistribution, Pancreas ([2]; Mouse 3): 0.6 % ID/g
- Biodistribution, Spleen ([2]; Mouse 3): 0.7 % ID/g
- Biodistribution, Blood ([2]; Mouse 4): 3.5 % ID/g
- Biodistribution, Bone ([2]; Mouse 4): 4.2 % ID/g
- Biodistribution, Heart ([2]; Mouse 4): 1.2 % ID/g
- Biodistribution, Intestine ([2]; Mouse 4): 10.1 % ID/g
- Biodistribution, Kidneys ([2]; Mouse 4): 2.4 % ID/g
- Biodistribution, Liver ([2]; Mouse 4): 4.2 % ID/g
- Biodistribution, Lung ([2]; Mouse 4): 1.8 % ID/g
- Biodistribution, Muscle ([2]; Mouse 4): 0.6 % ID/g
- Biodistribution, Pancreas ([2]; Mouse 4): 0.5 % ID/g
- Biodistribution, Spleen ([2]; Mouse 4): 0.7 % ID/g
- radiotracer uptake higher in tumor compared to muscle (biodistribution analyses) [2]: 8 fold
- Biodistribution - Tumor to muscle ratio (T:M) ([2]; Mean ± SD (n=4)): 8.3 ± 2.9
- Biodistribution, Tumor ([2]; Mean ± SD (n=4)): 4.8 ± 1.1 % ID/g
- Biodistribution - Tumor to muscle ratio (T:M) ([2]; Mouse 1): 11.0
- Biodistribution, Tumor ([2]; Mouse 1): 5.8 % ID/g
- Biodistribution - Tumor to muscle ratio (T:M) ([2]; Mouse 2): 5.9
- Biodistribution, Tumor ([2]; Mouse 2): 4.8 % ID/g
- Biodistribution - Tumor to muscle ratio (T:M) ([2]; Mouse 3): 10.6
- Biodistribution, Tumor ([2]; Mouse 3): 5.2 % ID/g
- Biodistribution - Tumor to muscle ratio (T:M) ([2]; Mouse 4): 5.7
- Biodistribution, Tumor ([2]; Mouse 4): 3.2 % ID/g

Reference: patent publication US20240399001A1, “RA[…] TH[…] TO FIBROBLAST ACTIVATION PROTEIN (FAP)” (BLUE EARTH D[…], priority 2021, published 2024)
